Source: patent US5703093A, “Compounds and methods for the treatment of cardiovascular, inflammatory and immune disorders” (Cytomed, Inc., priority 1995, dated 1997)
Where “and” joins values, the source holds several entries; their conditions need not be identical. Equal entries are not always repeated.

Tests used:
[1] = molecular target: T1, Cytosol 5-Lipoxygenase of Rat Basophile Leukemia Cells (Rattus norvegicus, UniProt P12527); test: Effect on cytosol 5-lipoxygenase of rat basophile leukemia (RBL-2H3) cells; format: biochemical; details: RBL-2H3 cytosol preparation, [14C]arachidonic acid; repeat determinations
T1 construct: The supernatant was then removed and stored in aliquots; endogenous in cells; host or cells: RBL-2H3 (rat basophilic leukemia) cells, sonicate, 20,000 x g supernatant
T1 sequence (P12527 1-673): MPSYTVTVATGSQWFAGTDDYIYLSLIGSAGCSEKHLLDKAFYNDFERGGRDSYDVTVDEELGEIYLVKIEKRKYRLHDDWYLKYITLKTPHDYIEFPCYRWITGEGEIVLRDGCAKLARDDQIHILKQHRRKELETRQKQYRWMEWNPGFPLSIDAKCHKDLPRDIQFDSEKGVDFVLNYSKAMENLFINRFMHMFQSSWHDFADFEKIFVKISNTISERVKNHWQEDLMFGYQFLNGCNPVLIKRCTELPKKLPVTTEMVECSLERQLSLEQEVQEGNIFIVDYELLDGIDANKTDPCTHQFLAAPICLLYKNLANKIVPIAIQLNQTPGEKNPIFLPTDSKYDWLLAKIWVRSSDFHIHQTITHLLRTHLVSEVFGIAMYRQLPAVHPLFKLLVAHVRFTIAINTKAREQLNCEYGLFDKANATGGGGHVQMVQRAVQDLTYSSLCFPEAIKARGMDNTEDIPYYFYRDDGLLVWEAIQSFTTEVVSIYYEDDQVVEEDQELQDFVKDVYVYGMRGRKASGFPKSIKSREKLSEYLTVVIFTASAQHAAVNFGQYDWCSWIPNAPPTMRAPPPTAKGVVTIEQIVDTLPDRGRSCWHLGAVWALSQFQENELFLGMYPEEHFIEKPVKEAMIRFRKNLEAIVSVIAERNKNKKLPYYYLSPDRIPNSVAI
Procedure: A wide variety of biological assays have also been used to evaluate the ability of a compound to inhibit the enzyme 5-lipoxygenase. For example, a cytosol 5-lipoxygenase of rat basophilic leukemia cells (RBL) has been widely utilized in studies on leukotriene biosynthesis. Compounds that inhibit 5-lipoxygenase decrease the levels of leukotrienes.
Effect of Compounds on Cytosol 5-Lipoxygenase of Rat Basophile Leukemia Cells
RBL-2H3 cells were grown to confluence in tissue culture flasks according to Carter et al. (J PharmExp Ther 256(3); 929-937, 1991). The cells were harvested and washed five times in calcium-and magnesium-free D-PBS. The cells were suspended at 2×10^7 /ml in 10 mM BES, 10 mM PIPES, pH 6.8, 1 mM EDTA, and then sonicated. […]
The 5-LO activity in the RBL-2H3 preparation was determined as follows: 0.1 ml reactions consisting of 0.7 mM CaCl2, 100 mM NaCl, 1 mM EDTA, 10 mM BES, 10 MM PIPES, pH 7.4, varying concentrations of test compound dissolved in DMSO (7.5% DMSO final in assay), and an amount of the RBL-2H3 preparation that will convert 15% of the arachidonic acid substrate mixture to oxygenated products (determined experimentally for each RBL-2H3 preparation), were incubated for 20 minutes at room temperature. […] The film was developed, scanned using a densitometer, and the peak areas of arachidonic acid and its product(s) are calculated. […]

[2] = test system: Leukotriene B4 Production in Ionophore-stimulated human whole blood; test: Inhibition of leukotriene B4 production in ionophore-stimulated human whole blood (HWB); format: cell-based; details: A23187-stimulated, LTB4 by EIA, repeat determinations
Procedure: Another biological assay used to evaluate the ability of a compound to inhibit the enzyme 5-lipoxygenase is based on the classic pharmacological model of inflammation induced by inhibition of LTB4 from ionophore stimulated human whole blood.
Inhibition of Leukotriene B4 Production in Ionophore-stimulated human whole blood
Human blood was drawn into heparinized blood collection tubes, and aliquoted in 1 ml portions into 1.5 ml microfuge tubes. Test compound ([…]) of varying concentrations, dissolved in DMSO, was added to the blood sample and incubated for 15 minutes at 37° C. Calcium ionophore ([…], A23187) in DMSO was added to a final concentration of […], and the samples were incubated for 30 minutes at 37° C. Samples are then centrifuged at 1100×g (2500 rpm, H1000B rotor, in a Sorvall centrifuge) for 10 minutes at 4° C. Supernatant ([…]) was transferred into a 1.5 ml microfuge tube, […] of cold methanol added, and proteins precipitated on ice for 30 minutes. The samples were centrifuged at 110×g for 10 minutes at 4° C., and the supernatant assayed for LTB4 using a commercially available EIA kit (Cayman Chemical) according to manufacturer's specifications.

[3] = test system: whole blood 5-lipoxygenase (LTB4); test: Ex-vivo rat whole blood 5-lipoxygenase evaluation (ex vivo LTB4); format: in vivo
[4] = molecular target: PAF (Homo sapiens, UniProt P25105); details: reported in the literature; cited from earlier work
[5] = molecular target: T2, 5-lipoxygenase (Homo sapiens, UniProt P09917); details: reported in the literature; cited from earlier work
T2 sequence (P09917 1-674): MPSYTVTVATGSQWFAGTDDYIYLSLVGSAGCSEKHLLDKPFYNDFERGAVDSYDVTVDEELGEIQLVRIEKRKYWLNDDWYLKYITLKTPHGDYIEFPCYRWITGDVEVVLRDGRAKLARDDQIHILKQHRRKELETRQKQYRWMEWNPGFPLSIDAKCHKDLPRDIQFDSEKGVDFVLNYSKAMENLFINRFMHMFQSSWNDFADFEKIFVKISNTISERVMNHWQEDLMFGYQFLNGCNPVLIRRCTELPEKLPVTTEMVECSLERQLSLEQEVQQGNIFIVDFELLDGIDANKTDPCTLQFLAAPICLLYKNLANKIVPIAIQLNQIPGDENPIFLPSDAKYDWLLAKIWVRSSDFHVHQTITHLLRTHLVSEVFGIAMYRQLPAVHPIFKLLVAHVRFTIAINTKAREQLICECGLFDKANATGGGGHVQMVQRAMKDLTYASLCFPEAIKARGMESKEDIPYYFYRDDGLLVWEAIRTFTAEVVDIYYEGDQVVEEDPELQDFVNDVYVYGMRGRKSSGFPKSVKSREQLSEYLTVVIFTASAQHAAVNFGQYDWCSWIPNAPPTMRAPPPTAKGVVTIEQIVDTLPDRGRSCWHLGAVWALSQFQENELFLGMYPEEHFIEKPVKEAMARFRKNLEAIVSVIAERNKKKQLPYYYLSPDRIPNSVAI

[6] = test system: whole blood 5-lipoxygenase (LTB4); test: Ex-vivo mouse whole blood 5-lipoxygenase evaluation (ex vivo LTB4); format: in vivo; details: 3 mg/k iv
Procedure: Ex-vivo mouse whole blood 5-lipoxygenase evaluation
CD-1 female mice, weighing 18-25 grams, and CD female rats, weighing 150-230 grams, were obtained from Charles River Labs. Test compounds were dissolved in 0.5% DMSO in 0.9% NaCl for administration in mice (0.5 mg/ml) and in an alcohol vehicle (2% benzyl alcohol, 1% ethanol, 40% PEG 300, 10% propylene glycol, 47% of 5% dextrose and 3.5% pluronic F-68 in DiH2 O) for use in rats (5 mg/ml). […] Heparinized whole blood (0.3 ml) was added into 1.5 ml Eppendorf centrifuge tube containing […] of 2 mM calcium ionophore A23187 (the final concentration of A23187 was […]). The sample was incubated for 30 minutes in a water bath at 37° C., and then centrifuged for 2 minutes. The plasma was diluted (x120) and assayed for LTB4 using EIA.

PAF, sequence (P25105 whole entry): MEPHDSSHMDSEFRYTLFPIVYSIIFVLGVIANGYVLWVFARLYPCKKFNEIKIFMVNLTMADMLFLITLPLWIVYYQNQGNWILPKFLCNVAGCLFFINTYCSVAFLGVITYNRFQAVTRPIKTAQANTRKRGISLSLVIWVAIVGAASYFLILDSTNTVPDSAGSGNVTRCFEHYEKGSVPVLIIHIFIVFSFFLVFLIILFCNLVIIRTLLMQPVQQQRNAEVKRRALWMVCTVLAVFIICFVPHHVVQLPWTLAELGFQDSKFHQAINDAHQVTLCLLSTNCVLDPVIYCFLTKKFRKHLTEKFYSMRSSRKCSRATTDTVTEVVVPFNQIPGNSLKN

With `NC(=O)N(O)CCC#C[C@H]1CC[C@@H](COc2ccc(F)cc2)O1` the IC50 [1] was 2000 nM and 1260 nM and 1560 nM and 880 nM, the IC50 [2] was 520 nM and the IC50 ([2]; Homo sapiens) was 430 nM. For the same molecule, the “ex vivo LTB4 % inh.” value ([3]; 2 mg/k po, 60 minutes) was 86% and the “ex vivo LTB4 % inh.” value ([3]; 2 mg/k po, 360 minutes) was 63%.

For `COc1cc([C@H]2CC[C@H](c3cc(OC)c(OC)c(OC)c3)S2)cc(OC)c1OC` (relative stereo) [L-653,150, trans-2,5-bis-(3,4,5-trimethoxyphenyl)tetrahydrothiophene], the PAF antagonism [4] is listed as “potent PAF antagonist” and the “inhibition of 5-lipoxygenase” value [5] is listed as “moderate inhibitor of 5-lipoxygenase”.

In the case of `NC(=O)N(O)CCCC[C@@H]1CC[C@@H](COc2ccc(F)cc2)O1`, the IC50 ([2]; Homo sapiens) is reported as 153 nM, the “ex vivo LTB4 % inh.” value ([6]; 15 minutes) is reported as 89% and the “ex vivo LTB4 % inh.” value ([6]; 60 minutes) is reported as 22%. The “ex vivo LTB4 % inh.” value ([6]; 180 minutes) was 36%, the “ex vivo LTB4 % inh.” value ([3]; 2 mg/k po, 900 minutes) was 34% and the “ex vivo LTB4 % inh.” value ([3]; 5 mg/k po, 900 minutes) was 34%.

With `NC(=O)N(O)CCC#C[C@@H]1CC[C@H](COc2ccc(F)cc2)O1` the IC50 ([2]; Homo sapiens) was 180 nM.

With `NC(=O)N(O)CCC#C[C@H]1CC[C@H](COc2ccc(F)cc2)O1` the IC50 [1] was 1350 nM and 1380 nM, the IC50 [2] was 270 nM and the IC50 ([2]; Homo sapiens) was 150 nM.

`NC(=O)N(O)CCCC[C@H]1CC[C@H](COc2ccc(F)cc2)O1` (single isomer, unassigned) showed an IC50 ([2]; Homo sapiens) of 420 nM.

In the case of `NC(=O)N(O)CCC#C[C@@H]1CC[C@@H](COc2ccc(F)cc2)O1`, the “ex vivo LTB4 % inh.” value ([6]; 15 minutes) is reported as 94%, the “ex vivo LTB4 % inh.” value ([6]; 60 minutes) is reported as 86% and the “ex vivo LTB4 % inh.” value ([6]; 180 minutes) is reported as 44%. The “ex vivo LTB4 % inh.” value ([3]; 2 mg/k po, 60 minutes) was 93%, the “ex vivo LTB4 % inh.” value ([3]; 2 mg/k po, 360 minutes) was 5% and the “ex vivo LTB4 % inh.” value ([3]; 5 mg/k po, 900 minutes) was 29%.
